The values below come from patent publication US8999374B2, “Method of inhibiting salmonella in livestock and poultry” (priority 2002, dated 2015).

Molecules are shown by their SMILES.

The subject of the assay is Salmonella enteritidis KTE-61 strain. The assay is described as follows: Inhibition test of salmonella/yeast agglutination. It counts as cell-based. The method, then:
Inhibition tests of salmonella agglutination were carried out on various saccharides as follows. […] Preliminary test was carried out for observing by stereoscopic microscope (OLYMPUS Co., Ltd) that agglutination occurs in this liquid mixture.
Next, in a similar manner to the aforementioned preliminary test, with the use of aqueous solution of saccharide where the aforementioned taken β-1,4-mannobiose and a mannose reagent (D-Mannose; Wako Pure Chemical Industries, Ltd.) were used instead of distilled water, the minimum concentration for inhibiting agglutination of liquid mixture (the minimum concentration for inhibiting agglutination) was obtained by varying the concentration, respectively. The actual minimum concentration for inhibiting the agglutination in liquid mixture and the relative concentration (ratio of concentration) when the minimum concentration for inhibiting agglutination of mannose is set 1 are shown in table 1.

For `OC[C@H]1O[C@@H](O[C@H]2[C@H](O)[C@H](O)C(O)O[C@@H]2CO)[C@@H](O)[C@@H](O)[C@@H]1O` (stereo partly drawn) [Mannobiose, β-1,4-mannobiose], the “minimum concentration for inhibiting agglutination, Actual Concentration” value (Salmonella enteritidis KTE-61 with yeast Candida albicans KI-102001, concentration in liquid mixture) is 1290 µg/mL. Further, the “Relative Concentration (Based on Mannose)” value (minimum concentration for inhibiting agglutination, mannose set to 1) is reported as 2.173.
